Measured values published in patent US20240317800A1, “NOVEL COMPOUNDS AND ANTIBACTERIAL COMPOSITION COMPRISING THE SAME” (KOREA INSTITUTE OF OCEAN SCIENCE & TECHNOLOGY, priority 2022, published 2024).
Values after ≈ are worked out from the molar mass of the structure shown.

What follows are compounds tested on Mycoplasma hyorhinis ATCC 17981 (assay: Mycoplasma inhibitory activity, broth dilution assay (MIC)). Settings: ATCC17981, 168 h, PPLO liquid medium, 7 days, 37° C., 5% CO2, lowest concentration at which bacteria did not grow, read-out: MIC (minimum inhibitory concentration).
Assay type: cell-based
Experimental: For compounds 1 to 3, the inhibitory activity against Mycoplasma hyorhinis was evaluated using a broth dilution assay. Briefly, an experimental strain Mycoplasma hyorhinis ATCC 17981 was cultured in a PPLO liquid medium at 37° C. in a 5% CO2 incubator. […] 100 μL of the culture medium, which made with the strain suspension at approximately 2×10^4 CFU/mL, was added to each well of a 96-well plate. The plates were incubated for 7 days in a 37° C., 5% CO2 incubator. As the bacteria grew, the medium turned yellow. […] BioMycoX® (CellSafe, Korea) was used as a positive control.

Compound | MIC [µg/mL]
CCCCCCCCCCC[C@@H]1CC(=O)N[C@@H](CCC(=O)O)C(=O)N[C@@H](CC(C)C)C(=O)N[C@H](CC(C)C)C(=O)N[C@@H](CC(C)C)C(=O)O1 [Compound 1, Bacilotetrin C] | 31 (≈ 44.6 µM)
CC(C)CCCCCCCCC[C@@H]1CC(=O)N[C@@H](CCC(=O)O)C(=O)N[C@@H](CC(C)C)C(=O)N[C@H](CC(C)C)C(=O)N[C@@H](CC(C)C)C(=O)O1 [Compound 3, Bacilotetrin E] | 31 (≈ 43.7 µM)
CCC(C)CCCCCCCC[C@@H]1CC(=O)N[C@@H](CCC(=O)O)C(=O)N[C@@H](CC(C)C)C(=O)N[C@H](CC(C)C)C(=O)N[C@@H](CC(C)C)C(=O)O1 (stereo partly drawn) [Compound 2, Bacilotetrin D] | 31 (≈ 43.7 µM)
